What all share (format): cell-based
One test has as its target T1, human CCR2 (Homo sapiens, UniProt P41597).
T1 construct: host or cells: Chem-1 cell line
T1 sequence (P41597 1-360 isoform P41597-2): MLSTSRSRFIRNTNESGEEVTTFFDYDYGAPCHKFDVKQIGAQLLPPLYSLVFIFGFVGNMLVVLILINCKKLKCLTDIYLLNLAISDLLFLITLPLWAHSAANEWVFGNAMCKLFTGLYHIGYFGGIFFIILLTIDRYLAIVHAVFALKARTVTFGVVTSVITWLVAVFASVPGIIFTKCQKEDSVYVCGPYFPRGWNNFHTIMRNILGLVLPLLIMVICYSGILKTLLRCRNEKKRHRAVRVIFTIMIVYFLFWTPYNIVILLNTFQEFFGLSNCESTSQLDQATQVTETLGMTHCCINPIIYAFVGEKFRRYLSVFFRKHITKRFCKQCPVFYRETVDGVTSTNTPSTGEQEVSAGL
The test can be described thus: Functional Ca2+ release test (B-1). The settings on record: Chem-1 cell line transfected with human CCR2; 50% inhibition of the MCP-1 effect, MCP-1 at EC50 (about 5 nM); in some cases means of several determinations. An outline of the steps:
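Chem-1 cells expressing human CCR2, loaded with Fluo-4 for 60 min at 37° C, were preincubated 10 min with compound (10-point, 1:3.16 dilutions), then stimulated with MCP-1 at its predetermined EC50 (about 5 nM). Ca2+ release was monitored for 120 s. IC50 came from a 4-parameter Hill fit.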

Test [1] concerns the target T2, murine CCR2 (Mus musculus, UniProt P51683).
T2 construct: host or cells: U2OS β-arrestin cell line
The test can be described thus: Functional β-arrestin recruiting test with human MCP-1 (B-2a). The settings on record: U2OS β-arrestin cell line transfected with murine CCR2; agonist human MCP-1 at EC50 (about 3 nM); in some cases means of several determinations. On the procedure:
The antagonistic action of test substances on CCR2 was determined in a β-arrestin test. The PathHunter β-arrestin GPCR test system (DiscoveRx Corporation, Ltd.) is a cell-based functional method for detecting binding of β-arrestin to an activated receptor. The molecular basis is a […] complementation measured by the enzymatic conversion of a chemiluminescent substrate. The test cell used was a U2OS β-arrestin cell line transfected with murine CCR2 (93-0543C3, DiscoveRx Corporation, Ltd.).
The test substances were dissolved in dimethyl sulphoxide (DMSO) at a concentration of 10 mM and serially diluted with DMSO in steps of 1:3.16 for a 10-point dose/activity analysis. According to the desired test concentrations, the substances were pre-diluted in Tyrode with 2 mM CaCl2 and 0.05% BSA.
The cells, cultivated in MEM Eagle (supplemented with 10% FCS, 50 U/ml of penicillin, 50 μg/ml of streptomycin, 250 μg/ml of hygromycin and 500 μg/ml of geniticin), were sown at 2000 cells/25 μl in 384 well, μCLEAR/black cell culture plates from Greiner (#781092) and incubated at 37° C. for 24 h. The sowing medium consisted of Opti-MEM (supplemented with 1% FCS, 50 U/ml of penicillin and 50 μg/ml of streptomycin). The cells were pre-incubated for 10 min with 10 μl of the test substances diluted in buffer, and 10 μl of agonist solution [human MCP-1 (PeproTech, #300-04) in Tyrode with 0.05% BSA) were then added. The human MCP-1 was employed at the concentration which corresponds to the EC50 which had been determined in a preliminary test (usually about 3 nM). After 90 min of incubation at 37° C., the solution was removed, and recruitment of β-arrestin to CCR2 was detected with the aid of the PathHunter detection reagent (93-001, DiscoveRx Corporation, Ltd.) according to the instructions of the manufacturer. Luminescence was measured after an incubation time of 60 min using a proprietary luminescence imaging measuring instrument. The molar concentration of the test substance which caused 50% inhibition of the MCP-1 effect (IC50) was determined using a 4-parameter logistic function (Hill function).

In test [2] the target is T2, murine CCR2. Put plainly: Functional β-arrestin recruiting test with murine MCP-1 (B-2b). The settings on record: U2OS β-arrestin cell line transfected with murine CCR2; agonist murine MCP-1; in some cases means of several determinations. In short, it runs like this: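 In a PathHunter β-galactosidase complementation assay, U2OS cells expressing murine CCR2 were preincubated 10 min with compound (10-point, 1:3.16 dilutions), then challenged with murine MCP-1 at its predetermined EC50 for 90 min at 37 °C. Luminescence was read after 60 min, and IC50 was fitted with a 4-parameter Hill function.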
(In general: Recruitment of arrestin is a read-out of receptor activation apart from second messengers.)

T2 sequence (P51683 whole entry): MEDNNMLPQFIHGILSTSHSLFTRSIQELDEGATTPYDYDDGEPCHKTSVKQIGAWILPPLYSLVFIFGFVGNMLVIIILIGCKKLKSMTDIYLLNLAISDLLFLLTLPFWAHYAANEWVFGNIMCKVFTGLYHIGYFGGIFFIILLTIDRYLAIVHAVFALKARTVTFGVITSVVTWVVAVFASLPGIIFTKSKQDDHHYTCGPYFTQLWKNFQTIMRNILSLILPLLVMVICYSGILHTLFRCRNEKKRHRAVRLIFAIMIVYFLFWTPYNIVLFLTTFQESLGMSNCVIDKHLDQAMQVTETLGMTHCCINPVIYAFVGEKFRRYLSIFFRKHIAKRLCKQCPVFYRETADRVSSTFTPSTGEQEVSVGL

On to “5-(3,4-dichlorobenzyl-2-(2-methoxypyridin-3-yl)-6-(trifluoromethyl)pyrimidin-4(3H)-one [Example 41]”, for which the IC50 against human CCR2 is 4.8 nM; at murine CCR2 [1], 410 nM.
In the same order, the values of `O=c1[nH]c(-c2ccccn2)nc(C(F)(F)F)c1Cc1ccc(Cl)c(Cl)c1` [Example 1, 5-(3,4-Dichlorobenzyl)-2-(pyridin-2-yl)-6-(trifluoromethyl)pyrimidin-4(3H)-one] are 3.5 nM and 110 nM.
Consider `O=c1[nH]c(-c2ncc(C(F)(F)F)cc2Cl)nc(C(F)(F)F)c1Oc1ccc(Cl)c(Cl)c1` [Example 6, 2-[3-chloro-5-(trifluoromethyl)pyridin-2-yl]-5-(3,4-dichlorophenoxy)-6-(trifluoromethyl)pyrimidin-4(3H)-one], for which the IC50 at human CCR2 worked out at 4.8 nM; at murine CCR2 [1], 150 nM.
As to `O=c1[nH]c(-c2ccc(Cl)cn2)nc(C(F)(F)F)c1Oc1ccc(Cl)c(Cl)c1` [Example 8, 2-(5-chloropyridin-2-yl)-5-(3,4-dichlorophenoxy)-6-(trifluoromethyl)pyrimidin-4(3H)-one], the half-inhibitory concentration (IC50) against human CCR2 came to 3.9 nM; on murine CCR2 [1], 180 nM.
In the same order, the values of `Cc1cccc(-c2nc(C(F)(F)F)c(Oc3ccc(Cl)c(Cl)c3)c(=O)[nH]2)n1` [Example 9, 5-(3,4-dichlorophenoxy)-2-(6-methylpyridin-2-yl)-6-(trifluoromethyl)pyrimidin-4(3H)-one] are 13 nM and 180 nM.
Consider `O=c1[nH]c(-c2cccc(Cl)n2)nc(C(F)(F)F)c1Oc1ccc(Cl)c(Cl)c1` [Example 10, 2-(6-chloropyridin-2-yl)-5-(3,4-dichlorophenoxy)-6-(trifluoromethyl)pyrimidin-4(3H)-one], for which the IC50 at human CCR2 came to 15 nM; on murine CCR2 [1], 140 nM.
For the compound `COc1csnc1-c1nc(C(F)(F)F)c(Oc2ccc(Cl)c(C(F)(F)F)c2)c(=O)[nH]1` [Example 238], the results for the IC50 against human CCR2 and at murine CCR2 [2] were 0.9 nM and 39 nM, respectively.
For the compound `O=c1[nH]c(-c2nscc2O)nc(C(F)(F)F)c1Oc1ccc(Cl)c(C(F)(F)F)c1` [Example 239], the IC50 against human CCR2 was found to be 2.6 nM; on murine CCR2 [2], 89 nM.
`CCn1ccc(-c2nc(C(F)(F)F)c(Oc3ccc(Cl)c(C(F)(F)F)c3)c(=O)[nH]2)n1` [Example 240]: the IC50 turned out to be 0.5 nM against human CCR2 and 107 nM on murine CCR2 [2].
In the same order, the values of `Cc1cnc(-c2nc(C(F)(F)F)c(Oc3ccc(Cl)c(Cl)c3)c(=O)[nH]2)[nH]1` [Example 241] are 0.8 nM and 76 nM.
As to `Cc1cnc(-c2nc(C(F)(F)F)c(Oc3ccc(Cl)c(C(F)(F)F)c3)c(=O)[nH]2)[nH]1` [Example 242], the IC50 on human CCR2 worked out at 1.8 nM; at murine CCR2 [2] it was 153 nM.
In the same order, the values of `O=c1[nH]c(-n2cnc(Cl)n2)nc(C(F)(F)F)c1Oc1ccc(Cl)c(Cl)c1` [Example 247] are 123 nM and 5530 nM.
In the case of `CSc1cnn(-c2nc(C(F)(F)F)c(Oc3ccc(Cl)c(Cl)c3)c(=O)[nH]2)c1` [Example 248], the IC50 worked out at 2.2 nM at human CCR2 and 1230 nM at murine CCR2 [2].
As to `COc1cnn(-c2nc(C(F)(F)F)c(Oc3ccc(Cl)c(Cl)c3)c(=O)[nH]2)c1` [Example 249], the figures for the IC50 at human CCR2 and on murine CCR2 [2] were 0.9 nM and 254 nM, respectively.
In the same order, the values of `CC(C)Oc1cnn(-c2nc(C(F)(F)F)c(Oc3ccc(Cl)c(Cl)c3)c(=O)[nH]2)c1` [Example 250] are 4.1 nM and 942 nM.
In the same order, the values of `CC(C)(C)c1nncn1-c1nc(C(F)(F)F)c(Oc2ccc(Cl)c(Cl)c2)c(=O)[nH]1` [Example 251] are 76 nM and 6760 nM.
In the same order, the values of `O=c1[nH]c(-n2ccc(C(F)(F)F)n2)nc(C(F)(F)F)c1Oc1ccc(Cl)c(Cl)c1` [Example 252] are 113 nM and 6940 nM.
Take `O=c1[nH]c(-n2cc(C(F)(F)F)cn2)nc(C(F)(F)F)c1Oc1ccc(Cl)c(Cl)c1` [Example 253]: the IC50 was found to be 240 nM against human CCR2 and 4230 nM at murine CCR2 [2].
In the same order, the values of `COc1nc(N)n(-c2nc(C(F)(F)F)c(Oc3ccc(Cl)c(Cl)c3)c(=O)[nH]2)n1` [Example 254] are 15 nM and 613 nM.
In the same order, the values of `O=c1[nH]c(-n2cncn2)nc(C(F)(F)F)c1Oc1ccc(Cl)c(Cl)c1` [Example 255, 5-(3,4-Dichlorophenoxy)-2-(1H-1,2,4-triazol-1-yl)-6-(trifluoromethyl)pyrimidin-4(3H)-one] are 38 nM and 1340 nM.
In the same order, the values of `Nc1ccn(-c2nc(C(F)(F)F)c(Oc3ccc(Cl)c(Cl)c3)c(=O)[nH]2)n1` [Example 256, 2-(3-Amino-1H-pyrazol-1-yl)-5-(3,4-dichlorophenoxy)-6-(trifluoromethyl)pyrimidin-4(3H)-one] are 0.8 nM and 100 nM.
For the compound `Nc1cnc2cnn(-c3nc(C(F)(F)F)c(Oc4ccc(Cl)c(Cl)c4)c(=O)[nH]3)c2c1` [Example 257], the values for the IC50 against human CCR2 and on murine CCR2 [2] were 2.8 nM and 276 nM, respectively.
In the same order, the values of `O=c1[nH]c(-n2ncc3ncccc32)nc(C(F)(F)F)c1Oc1ccc(Cl)c(Cl)c1` [Example 258] are 9.9 nM and 949 nM.
In the same order, the values of `O=c1[nH]c(C2CCNCC2)nc(C(F)(F)F)c1Oc1ccc(Cl)c(C(F)(F)F)c1` [Example 259, 5-[4-chloro-3-(trifluoromethyl)phenoxy]-2-(piperidin-4-yl)-6-(trifluoromethyl)pyrimidin-4(3H)-one] are 624 nM and 3530 nM.
In the same order, the values of `COc1cn(C)nc1-c1nc(C(F)(F)F)c(Oc2ccc(Cl)c(C(F)(F)F)c2)c(=O)[nH]1` [Example 264, 5-[4-Chloro-3-(trifluoromethyl)phenoxy]-2-(4-methoxy-1-methyl-1H-pyrazol-3-yl)-6-(trifluoromethyl)pyrimidin-4(3H)-one] are 0.4 nM and 53 nM.
In the case of `C[S+]([O-])c1cccnc1-c1nc(C(F)(F)F)c(Oc2ccc(Cl)c(C(F)(F)F)c2)c(=O)[nH]1` (stereo not shown) [Example 265], the IC50 against human CCR2 came to 12 nM; at murine CCR2 [2] it was 257 nM.
With `CS(=O)(=O)c1cccnc1-c1nc(C(F)(F)F)c(Oc2ccc(Cl)c(C(F)(F)F)c2)c(=O)[nH]1` [Example 266, 5-[4-Chloro-3-(trifluoromethyl)phenoxy]-2-[3-(methylsulphonyl)pyridin-2-yl]-6-(trifluoromethyl)pyrimidin-4(3H)-one], the IC50 was 1.8 nM on human CCR2 and 196 nM at murine CCR2 [2].
In the same order, the values of `C[S+]([O-])c1cccnc1-c1nc(C(F)(F)F)c(Oc2ccc(Cl)c(Cl)c2)c(=O)[nH]1` (stereo not shown) [Example 267, 5-(3,4-Dichlorophenoxy)-2-[3-(methylsulphinyl)pyridin-2-yl]-6-(trifluoromethyl)pyrimidin-4(3H)-one] are 103 nM and 679 nM.
For `CS(=O)(=O)c1cccnc1-c1nc(C(F)(F)F)c(Oc2ccc(Cl)c(Cl)c2)c(=O)[nH]1` [Example 268, 5-(3,4-Dichlorophenoxy)-2-[3-(methylsulphonyl)pyridin-2-yl]-6-(trifluoromethyl)pyrimidin-4(3H)-one], the IC50 at human CCR2 was 5.8 nM; on murine CCR2 [2], 484 nM.

One may read the IC50 as the concentration that inhibits the measured activity by half. Read a low IC50 as greater potency in that assay.

(Values after patent US20160237059A1, “HETEROCYCLIC SUBSTITUTED TRIFLUOROMETHYL PYRIMIDINONES AND THEIR USE” (BAYER PHARMA AKTIENGESELLSCHAFT, priority 2013, published 2016).)
